Measured values taken from ChEMBL document CHEMBL1201862, “PubChem BioAssay data set” (2004).
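Growth conditions: 96-well plates. Treatment: test compound, 48 hours, 5 concentrations. Analysis: linear interpolation between bracketing concentrations; unreached endpoints set to highest concentration. At the GI50, growth is halved.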 Active and inactive are the calls of the source. Rule as the data show it: active = GI50 up to about 1.1 µM and inactive = higher.

Tests used:
Test in all cases: NCI-60 cell line screen, 48 h
[1] = test system: A498
[2] = test system: EKVX
[3] = test system: HCT-116
[4] = test system: K562
[5] = test system: KM12
[6] = test system: M14
[7] = test system: NCI-H23
[8] = test system: NCI-H460
[9] = test system: OVCAR-3
[10] = test system: OVCAR-8
[11] = test system: RPMI-8226
[12] = test system: RXF 393
[13] = test system: SF-268
[14] = test system: SR
[15] = test system: SW-620
[16] = test system: TK-10
[17] = test system: UO-31
[18] = test system: HOP-92
[19] = test system: T47D
[20] = test system: DU-145

Row | Structure (SMILES) | GI50 [1] | GI50 [2] | GI50 [3] | GI50 [4] | GI50 [5] | GI50 [6] | GI50 [7] | GI50 [8] | GI50 [9] | GI50 [10] | GI50 [11] | GI50 [12] | GI50 [13] | GI50 [14] | GI50 [15] | GI50 [16] | GI50 [17] | GI50 [18] | GI50 [19] | GI50 [20]
1 | c1ccc(C2=NOC3COc4ccccc4OCC23)cc1 (configuration not stated) | > 100 µM (inactive) | > 100 µM (inactive) | > 100 µM (inactive) | 72.6 µM (inactive) | 8.17 µM (inactive) | > 100 µM (inactive) | > 100 µM (inactive) | > 100 µM (inactive) | > 100 µM (inactive) | > 100 µM (inactive) | > 100 µM (inactive) | > 100 µM (inactive) | > 100 µM (inactive) | > 100 µM (inactive) | > 100 µM (inactive) | > 100 µM (inactive) | 77.1 µM (inactive) | – | – | –
2 | O=C(/C=C/c1ccccc1Cl)NC1C=Nc2ccc([N+](=O)[O-])cc2NC1 (configuration not stated) | > 100 µM (inactive) | > 100 µM (inactive) | 59.6 µM (inactive) | 46.1 µM (inactive) | 34.4 µM (inactive) | > 100 µM (inactive) | – | 47 µM (inactive) | 42.3 µM (inactive) | 55.8 µM (inactive) | 30.8 µM (inactive) | 97.7 µM (inactive) | > 100 µM (inactive) | 14 µM (inactive) | 4.25 µM (inactive) | > 100 µM (inactive) | 24.4 µM (inactive) | – | – | –
3 | O=[N+]([O-])c1ccc(Cl)c2c([N+](=O)[O-])cccc12 | – | > 10 µM (inactive) | 1.76 µM (inactive) | 4.02 µM (inactive) | 3.2 µM (inactive) | – | 9.27 µM (inactive) | – | 3.49 µM (inactive) | 3.5 µM (inactive) | 5.52 µM (inactive) | > 10 µM (inactive) | 3.87 µM (inactive) | 3.95 µM (inactive) | 2.91 µM (inactive) | 9.57 µM (inactive) | – | 3.96 µM (inactive) | 4.22 µM (inactive) | –
4 | COC(=O)C(Cc1nc2ccccc2nc1O)C(=O)C(=O)Nc1ccc([N+](=O)[O-])cc1[N+](=O)[O-] (configuration not stated) | 23 µM (inactive) | 20 µM (inactive) | 21.2 µM (inactive) | 30.8 µM (inactive) | 16 µM (inactive) | 17.8 µM (inactive) | 18.7 µM (inactive) | 22.1 µM (inactive) | 15.5 µM (inactive) | 22.3 µM (inactive) | 23.1 µM (inactive) | 18.3 µM (inactive) | 21.5 µM (inactive) | 12 µM (inactive) | 18.7 µM (inactive) | 26.4 µM (inactive) | 20.6 µM (inactive) | – | – | –
5 | CCN(C(=N)C#N)c1ccccc1 | > 100 µM (inactive) | > 100 µM (inactive) | > 60.4 µM (inactive) | > 75.5 µM (inactive) | > 100 µM (inactive) | > 100 µM (inactive) | > 100 µM (inactive) | > 63.8 µM (inactive) | > 100 µM (inactive) | > 100 µM (inactive) | > 100 µM (inactive) | > 100 µM (inactive) | > 100 µM (inactive) | > 100 µM (inactive) | 20.5 µM (inactive) | > 100 µM (inactive) | > 100 µM (inactive) | > 100 µM (inactive) | – | –
6 | O=C(CO)CC(=O)C(=O)Nc1nc([N+](=O)[O-])cs1 | > 100 µM (inactive) | > 100 µM (inactive) | > 100 µM (inactive) | > 100 µM (inactive) | > 100 µM (inactive) | > 100 µM (inactive) | > 100 µM (inactive) | > 100 µM (inactive) | > 100 µM (inactive) | > 100 µM (inactive) | > 100 µM (inactive) | > 100 µM (inactive) | > 100 µM (inactive) | > 100 µM (inactive) | > 100 µM (inactive) | > 100 µM (inactive) | > 100 µM (inactive) | > 10 µM (inactive) | – | –
7 | CCCCC(C(=O)C(=O)NC1C2CC3CC(C2)CC1C3)C(=O)C(C)C (configuration not stated) | > 100 µM (inactive) | > 100 µM (inactive) | > 100 µM (inactive) | > 100 µM (inactive) | > 100 µM (inactive) | > 100 µM (inactive) | > 100 µM (inactive) | > 100 µM (inactive) | > 100 µM (inactive) | > 100 µM (inactive) | > 100 µM (inactive) | > 100 µM (inactive) | > 100 µM (inactive) | > 100 µM (inactive) | > 100 µM (inactive) | > 100 µM (inactive) | > 100 µM (inactive) | > 100 µM (inactive) | – | –
8 | CCC1(O)C(=O)OCc2c1cc1n(c2=O)Cc2cc3cc(OC)c(OC)cc3nc2-1 (configuration not stated) | 28.1 µM (inactive) | > 100 µM (inactive) | 22.3 µM (inactive) | 78.5 µM (inactive) | > 100 µM (inactive) | 26.4 µM (inactive) | 15 µM (inactive) | 3.49 µM (inactive) | 83.4 µM (inactive) | 82.4 µM (inactive) | 46.8 µM (inactive) | 16.9 µM (inactive) | 11.4 µM (inactive) | 2.29 µM (inactive) | – | > 100 µM (inactive) | 32 µM (inactive) | > 100 µM (inactive) | – | –
9 | c1ccc(CN(Cc2ccccn2)Cn2cccn2)nc1 | 38.2 µM (inactive) | 34.9 µM (inactive) | 22.5 µM (inactive) | 36.6 µM (inactive) | 63.8 µM (inactive) | 25.9 µM (inactive) | 50.5 µM (inactive) | 41.2 µM (inactive) | > 100 µM (inactive) | 32.8 µM (inactive) | 28.9 µM (inactive) | 57.5 µM (inactive) | 76.6 µM (inactive) | 33.4 µM (inactive) | 48 µM (inactive) | > 100 µM (inactive) | 79.6 µM (inactive) | 52.6 µM (inactive) | – | –
10 | COc1ccccc1NC(=O)C(CC(C(=O)Nc1ccccc1OC)/C(C)=N/Nc1ccc([N+](=O)[O-])cc1[N+](=O)[O-])/C(C)=N/Nc1ccc([N+](=O)[O-])cc1[N+](=O)[O-] (configuration not stated) | 51.1 µM (inactive) | > 88.7 µM (inactive) | > 59.3 µM (inactive) | > 65.9 µM (inactive) | 58.5 µM (inactive) | 40.4 µM (inactive) | > 83.8 µM (inactive) | > 100 µM (inactive) | 77.4 µM (inactive) | > 71 µM (inactive) | 63.1 µM (inactive) | – | > 84.9 µM (inactive) | 0.916 µM (active) | > 94.8 µM (inactive) | 14.6 µM (inactive) | 27 µM (inactive) | 54.3 µM (inactive) | – | –
11 | Cc1cccc2c1C/C(=C1\CCc3c(C)cccc31)C2=O | > 100 µM (inactive) | > 100 µM (inactive) | > 100 µM (inactive) | > 100 µM (inactive) | > 100 µM (inactive) | > 100 µM (inactive) | > 100 µM (inactive) | > 100 µM (inactive) | > 100 µM (inactive) | > 100 µM (inactive) | – | > 100 µM (inactive) | > 100 µM (inactive) | > 100 µM (inactive) | > 100 µM (inactive) | > 100 µM (inactive) | > 100 µM (inactive) | – | – | –
12 | CCc1oc2ccc(OC)c3c2c1C=CC=C3 | > 100 µM (inactive) | > 100 µM (inactive) | – | > 100 µM (inactive) | > 100 µM (inactive) | > 100 µM (inactive) | > 100 µM (inactive) | > 100 µM (inactive) | > 100 µM (inactive) | > 100 µM (inactive) | > 100 µM (inactive) | 54.1 µM (inactive) | > 100 µM (inactive) | > 100 µM (inactive) | > 100 µM (inactive) | > 100 µM (inactive) | 21.9 µM (inactive) | – | – | –
13 | CC1CC[C@]2(C(=O)O)CCC3(C)C(=CC(=O)C4[C@@]5(C)CCC(=O)C(C)(C)C5CC[C@]43C)[C@@H]2[C@H]1C (some centres not stated) | 32.4 µM (inactive) | 31.6 µM (inactive) | 18.1 µM (inactive) | 23.6 µM (inactive) | 18.7 µM (inactive) | 29.5 µM (inactive) | 25.1 µM (inactive) | 26.2 µM (inactive) | 17.4 µM (inactive) | 29.4 µM (inactive) | – | 17.8 µM (inactive) | 54.3 µM (inactive) | 10.9 µM (inactive) | 39.9 µM (inactive) | 28.3 µM (inactive) | 12.5 µM (inactive) | 25 µM (inactive) | – | –
14 | O=C(O)[C@@H]1CCCC[C@@H]1C(=O)N(C1CCCCC1)C1CCCCC1 | > 100 µM (inactive) | > 100 µM (inactive) | > 100 µM (inactive) | > 100 µM (inactive) | > 100 µM (inactive) | > 100 µM (inactive) | > 100 µM (inactive) | > 100 µM (inactive) | > 100 µM (inactive) | > 100 µM (inactive) | > 100 µM (inactive) | – | > 100 µM (inactive) | > 100 µM (inactive) | > 100 µM (inactive) | > 100 µM (inactive) | > 100 µM (inactive) | > 100 µM (inactive) | – | –
15 | CCOC(=O)C(C)(C)Oc1ccc2c(=O)cc(-c3ccc(Cl)cc3)oc2c1 | > 100 µM (inactive) | > 100 µM (inactive) | > 100 µM (inactive) | > 100 µM (inactive) | – | > 100 µM (inactive) | > 100 µM (inactive) | > 100 µM (inactive) | > 100 µM (inactive) | > 100 µM (inactive) | > 100 µM (inactive) | > 100 µM (inactive) | > 100 µM (inactive) | > 100 µM (inactive) | > 100 µM (inactive) | > 100 µM (inactive) | > 100 µM (inactive) | – | – | –
16 | CC1(CCCCO)C=CC(S(=O)(=O)c2ccccc2)CC1 (configuration not stated) | 8.59 µM (inactive) | 3.1 µM (inactive) | 4.15 µM (inactive) | 3.24 µM (inactive) | 1.86 µM (inactive) | 3.4 µM (inactive) | 5.04 µM (inactive) | 3.15 µM (inactive) | 6.17 µM (inactive) | 10.5 µM (inactive) | 1.56 µM (inactive) | 5.45 µM (inactive) | 1.36 µM (inactive) | 2.33 µM (inactive) | 5.87 µM (inactive) | 6.97 µM (inactive) | 4.16 µM (inactive) | 2.84 µM (inactive) | – | 5.14 µM (inactive)
